Data reported in patent publication US8987267B2, “2-substituted-8-alkyl-7-OXO-7,8-dihydropyrido[2,3-D]pyrimidine-6-carbonitriles and uses thereof in treating proliferative disorders” (Temple University—of the Commonwealth System of Higher …, priority 2010, dated 2015).

Assays:
TBK1 = TBK1 (Homo sapiens, UniProt Q9UHD2); experiment: Kinase inhibition panel; assay type: biochemical; details: 10 μM ATP
FRK/PTK5 = FRK/PTK5 (Homo sapiens, UniProt P42685); experiment: Kinase inhibition panel; assay type: biochemical; details: 10 μM ATP
YES/YES1 = YES/YES1 (Homo sapiens, UniProt P07947); experiment: Kinase inhibition panel; assay type: biochemical; details: 10 μM ATP
Sequence of YES/YES1 (P07947 whole entry): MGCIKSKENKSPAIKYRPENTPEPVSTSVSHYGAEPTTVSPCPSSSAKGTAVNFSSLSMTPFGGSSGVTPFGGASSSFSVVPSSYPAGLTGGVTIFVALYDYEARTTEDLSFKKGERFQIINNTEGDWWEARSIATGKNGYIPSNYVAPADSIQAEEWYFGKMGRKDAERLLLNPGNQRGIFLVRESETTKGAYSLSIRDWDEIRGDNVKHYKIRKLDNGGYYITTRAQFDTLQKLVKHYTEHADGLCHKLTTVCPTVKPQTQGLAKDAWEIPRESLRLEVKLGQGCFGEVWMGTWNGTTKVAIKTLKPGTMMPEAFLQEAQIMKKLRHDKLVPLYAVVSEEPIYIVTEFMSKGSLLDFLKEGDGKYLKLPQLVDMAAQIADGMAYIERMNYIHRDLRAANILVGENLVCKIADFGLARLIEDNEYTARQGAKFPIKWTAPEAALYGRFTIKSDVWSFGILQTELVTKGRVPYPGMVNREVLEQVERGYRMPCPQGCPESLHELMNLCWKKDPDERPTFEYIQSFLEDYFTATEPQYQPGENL

LYN = LYN (Homo sapiens, UniProt P07948); experiment: Kinase inhibition panel; assay type: biochemical; details: 10 μM ATP
Sequence of LYN (P07948 whole entry, species assumed): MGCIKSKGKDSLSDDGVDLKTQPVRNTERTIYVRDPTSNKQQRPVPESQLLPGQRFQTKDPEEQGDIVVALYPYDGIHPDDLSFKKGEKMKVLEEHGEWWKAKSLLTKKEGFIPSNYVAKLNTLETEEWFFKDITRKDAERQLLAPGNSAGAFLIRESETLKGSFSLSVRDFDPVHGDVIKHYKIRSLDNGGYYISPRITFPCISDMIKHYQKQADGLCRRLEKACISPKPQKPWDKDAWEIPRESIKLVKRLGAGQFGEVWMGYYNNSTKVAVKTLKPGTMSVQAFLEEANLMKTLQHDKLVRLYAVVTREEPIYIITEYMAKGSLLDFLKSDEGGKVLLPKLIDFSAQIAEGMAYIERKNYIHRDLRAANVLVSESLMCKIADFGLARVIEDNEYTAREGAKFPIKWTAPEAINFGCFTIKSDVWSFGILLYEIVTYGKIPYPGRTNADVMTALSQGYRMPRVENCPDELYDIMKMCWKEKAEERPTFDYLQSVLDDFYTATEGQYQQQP

TAOK1 = TAOK1 (Homo sapiens, UniProt Q7L7X3); experiment: Kinase inhibition panel; assay type: biochemical; details: 10 μM ATP
Sequence of TAOK1 (Q7L7X3 whole entry, species assumed): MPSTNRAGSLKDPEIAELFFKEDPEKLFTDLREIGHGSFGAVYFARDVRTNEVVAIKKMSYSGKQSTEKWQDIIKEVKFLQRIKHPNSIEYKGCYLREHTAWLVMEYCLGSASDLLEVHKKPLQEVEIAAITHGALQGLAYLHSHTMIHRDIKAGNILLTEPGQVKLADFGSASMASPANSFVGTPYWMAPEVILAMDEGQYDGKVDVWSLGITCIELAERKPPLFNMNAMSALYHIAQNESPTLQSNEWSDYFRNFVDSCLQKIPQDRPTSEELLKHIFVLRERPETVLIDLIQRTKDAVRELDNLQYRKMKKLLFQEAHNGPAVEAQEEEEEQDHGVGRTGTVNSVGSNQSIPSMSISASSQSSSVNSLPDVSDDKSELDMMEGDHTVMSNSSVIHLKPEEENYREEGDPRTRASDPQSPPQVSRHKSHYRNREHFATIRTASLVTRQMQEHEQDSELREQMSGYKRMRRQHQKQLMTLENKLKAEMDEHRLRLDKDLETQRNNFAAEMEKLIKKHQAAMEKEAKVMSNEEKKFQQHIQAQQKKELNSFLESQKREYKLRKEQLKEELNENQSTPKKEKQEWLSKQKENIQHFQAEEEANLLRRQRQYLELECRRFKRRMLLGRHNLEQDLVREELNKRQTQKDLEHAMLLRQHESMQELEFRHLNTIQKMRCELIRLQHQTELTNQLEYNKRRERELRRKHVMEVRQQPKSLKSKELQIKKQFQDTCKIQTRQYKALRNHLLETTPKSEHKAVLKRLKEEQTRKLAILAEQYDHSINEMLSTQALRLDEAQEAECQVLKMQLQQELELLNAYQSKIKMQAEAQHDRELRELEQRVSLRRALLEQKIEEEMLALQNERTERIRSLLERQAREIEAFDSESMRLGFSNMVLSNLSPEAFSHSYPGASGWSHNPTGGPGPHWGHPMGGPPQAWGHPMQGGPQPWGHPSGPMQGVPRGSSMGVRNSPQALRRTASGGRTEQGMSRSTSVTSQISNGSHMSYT

EphB2/HEK5 = EphB2/HEK5 (Homo sapiens, UniProt P29323); experiment: Kinase inhibition panel; assay type: biochemical; details: 10 μM ATP
FLT4NEGFR3 = FLT4NEGFR3 (Homo sapiens, UniProt P35916); experiment: Kinase inhibition panel; assay type: biochemical; details: 10 μM ATP
Sequence of FLT4NEGFR3 (P35916 25-1363): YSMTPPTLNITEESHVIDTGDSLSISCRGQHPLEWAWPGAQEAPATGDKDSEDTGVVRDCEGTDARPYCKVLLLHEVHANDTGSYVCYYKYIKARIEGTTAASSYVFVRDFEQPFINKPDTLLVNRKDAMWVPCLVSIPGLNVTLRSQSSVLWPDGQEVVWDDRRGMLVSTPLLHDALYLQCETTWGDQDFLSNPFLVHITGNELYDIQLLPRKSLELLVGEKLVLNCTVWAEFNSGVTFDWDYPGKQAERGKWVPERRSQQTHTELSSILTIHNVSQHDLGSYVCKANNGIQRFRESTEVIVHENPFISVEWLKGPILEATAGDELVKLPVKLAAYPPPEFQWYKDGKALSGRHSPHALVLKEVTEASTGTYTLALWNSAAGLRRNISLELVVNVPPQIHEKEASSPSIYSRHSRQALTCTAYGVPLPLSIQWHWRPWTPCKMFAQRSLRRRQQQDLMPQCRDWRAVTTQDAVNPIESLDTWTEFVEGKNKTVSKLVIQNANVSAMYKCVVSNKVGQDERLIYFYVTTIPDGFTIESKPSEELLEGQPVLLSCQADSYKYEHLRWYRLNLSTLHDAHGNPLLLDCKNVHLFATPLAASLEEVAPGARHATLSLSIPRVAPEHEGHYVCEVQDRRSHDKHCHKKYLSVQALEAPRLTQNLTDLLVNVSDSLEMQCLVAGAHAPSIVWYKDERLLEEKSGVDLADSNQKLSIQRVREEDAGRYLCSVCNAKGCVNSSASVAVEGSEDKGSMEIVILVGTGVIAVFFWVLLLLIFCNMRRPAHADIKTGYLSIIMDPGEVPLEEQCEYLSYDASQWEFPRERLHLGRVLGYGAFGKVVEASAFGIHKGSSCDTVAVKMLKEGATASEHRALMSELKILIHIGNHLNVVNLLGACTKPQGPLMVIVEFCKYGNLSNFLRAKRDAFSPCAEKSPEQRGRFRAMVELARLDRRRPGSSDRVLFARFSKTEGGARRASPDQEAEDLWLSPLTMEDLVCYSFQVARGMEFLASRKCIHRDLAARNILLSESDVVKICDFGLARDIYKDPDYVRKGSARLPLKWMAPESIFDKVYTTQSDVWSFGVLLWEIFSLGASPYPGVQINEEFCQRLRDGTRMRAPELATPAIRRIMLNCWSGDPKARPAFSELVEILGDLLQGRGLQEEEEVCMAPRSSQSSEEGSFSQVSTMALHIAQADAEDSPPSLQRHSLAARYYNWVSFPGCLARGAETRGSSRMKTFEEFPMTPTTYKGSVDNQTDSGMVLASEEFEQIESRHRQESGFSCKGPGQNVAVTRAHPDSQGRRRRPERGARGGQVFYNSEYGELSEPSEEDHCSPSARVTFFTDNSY

FGFR2 = FGFR2 (Homo sapiens, UniProt P21802); experiment: Kinase inhibition panel; assay type: biochemical; details: 10 μM ATP
Sequence of FGFR2 (P21802 22-821, species assumed): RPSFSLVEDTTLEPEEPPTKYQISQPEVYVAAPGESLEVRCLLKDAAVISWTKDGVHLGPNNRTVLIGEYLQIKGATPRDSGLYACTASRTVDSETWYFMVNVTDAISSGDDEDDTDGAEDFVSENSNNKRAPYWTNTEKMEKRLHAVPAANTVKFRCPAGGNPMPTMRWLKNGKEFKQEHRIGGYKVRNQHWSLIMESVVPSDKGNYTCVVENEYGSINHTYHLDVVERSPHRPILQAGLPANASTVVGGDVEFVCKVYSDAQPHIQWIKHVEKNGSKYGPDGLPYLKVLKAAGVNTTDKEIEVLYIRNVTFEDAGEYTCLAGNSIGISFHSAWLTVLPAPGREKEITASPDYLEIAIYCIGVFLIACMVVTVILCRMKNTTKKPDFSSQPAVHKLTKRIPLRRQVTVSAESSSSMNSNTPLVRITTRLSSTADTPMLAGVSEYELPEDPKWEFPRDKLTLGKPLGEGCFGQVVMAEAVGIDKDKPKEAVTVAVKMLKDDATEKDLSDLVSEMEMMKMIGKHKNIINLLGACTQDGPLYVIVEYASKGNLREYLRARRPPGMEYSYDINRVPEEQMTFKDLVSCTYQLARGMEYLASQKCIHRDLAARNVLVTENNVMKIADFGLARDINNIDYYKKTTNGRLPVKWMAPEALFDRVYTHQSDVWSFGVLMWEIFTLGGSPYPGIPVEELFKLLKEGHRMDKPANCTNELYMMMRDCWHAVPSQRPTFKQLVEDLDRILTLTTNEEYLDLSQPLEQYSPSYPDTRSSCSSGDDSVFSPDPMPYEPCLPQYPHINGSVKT

BT474 = experiment: Cytotoxicity assay, viable cell count; assay type: cell-based; details: Homo sapiens, BT-474; BT474, ErbB2 + Breast; 96 h continuous treatment, trypan blue
Description: (§1) Cells (1×10^5) were plated into 6-well dishes and 24 h later 8-cyclopentyl-2-((4-(4-methylpiperazin-1-yl)phenyl)amino)-7-oxo-7,8-dihydropyrido[2,3-d]pyrimidine-6-carbonitrile (12) was added at five different concentrations over a 2 log dilution (1-100 μM). The total number of viable cells was determined after 96 h of continuous treatment by staining with trypan blue and counting the number of non-staining cells (viable) remaining in each well using a hemacytometer. The percentage of viable cells remaining was calculated as follows: # viable cells (compound treated)/# viable cells (DMSO treated)*100.

JURKAT = experiment: Cytotoxicity assay, viable cell count; assay type: cell-based; details: Homo sapiens, T-Cell Lymphoma, 96 h continuous treatment, trypan blue
Description: as §1

HELA = experiment: Cytotoxicity assay, viable cell count; assay type: cell-based; details: Homo sapiens, Cervical, 96 h continuous treatment, trypan blue
Description: as §1

SNU-5 = experiment: Cytotoxicity assay, viable cell count; assay type: cell-based; details: Homo sapiens; SNU-5, Gastric; 96 h continuous treatment, trypan blue
Description: as §1

K562 = experiment: Cytotoxicity assay, viable cell count; assay type: cell-based; details: Homo sapiens; K562, CML; 96 h continuous treatment, trypan blue
Description: as §1

SW480 = experiment: Cytotoxicity assay, viable cell count; assay type: cell-based; details: Homo sapiens; SW480, COLO-RECTAL; 96 h continuous treatment, trypan blue
Description: as §1

U87 = experiment: Cytotoxicity assay, viable cell count; assay type: cell-based; details: Homo sapiens, U-87 MG; U87, Glioblastoma; 96 h continuous treatment, trypan blue
Description: as §1

SK-OV-3 = experiment: Cytotoxicity assay, viable cell count; assay type: cell-based; details: Homo sapiens; SK-OV-3, Ovarian; 96 h continuous treatment, trypan blue
Description: as §1

MCF-7 = experiment: Cytotoxicity assay, viable cell count; assay type: cell-based; details: Homo sapiens, MCF7; MCF-7, ER + Breast; 96 h continuous treatment, trypan blue
Description: as §1

MIA-PaCa-2 = experiment: Cytotoxicity assay, viable cell count; assay type: cell-based; details: Homo sapiens; MIA-PaCa-2, Pancreatic; 96 h continuous treatment, trypan blue
Description: as §1

COLO-205 = experiment: Cytotoxicity assay, viable cell count; assay type: cell-based; details: Homo sapiens; COLO-205, Colon; 96 h continuous treatment, trypan blue
Description: as §1

U266 = experiment: Cytotoxicity assay, viable cell count; assay type: cell-based; details: Homo sapiens, U-266; U266, Multiple Myeloma; 96 h continuous treatment, trypan blue
Description: as §1

MDA-MB-468 = experiment: Cytotoxicity assay, viable cell count; assay type: cell-based; details: Homo sapiens, MDA-MB-468, 96 h
Description: as §1

DLD-1 = experiment: Cytotoxicity assay, viable cell count; assay type: cell-based; details: Homo sapiens; DLD-1, COLO-RECTAL; 96 h continuous treatment, trypan blue
Description: as §1

SNU-398 = experiment: Cytotoxicity assay, viable cell count; assay type: cell-based; details: Homo sapiens; SNU-398, Liver; 96 h continuous treatment, trypan blue
Description: as §1

DU145 = experiment: Cytotoxicity assay, viable cell count; assay type: cell-based; details: Homo sapiens, DU-145; DU145, PROSTATE; 96 h continuous treatment, trypan blue
Description: as §1

BT20 = experiment: Cytotoxicity assay, viable cell count; assay type: cell-based; details: Homo sapiens, BT-20; BT20, Breast; 96 h continuous treatment, trypan blue
Description: as §1

GRANTA-519 = experiment: Cytotoxicity assay, viable cell count; assay type: cell-based; details: Homo sapiens; GRANTA-519, MCL; 96 h continuous treatment, trypan blue
Description: as §1

N417 = experiment: Cytotoxicity assay, viable cell count; assay type: cell-based; details: N417, SCLC; 96 h continuous treatment, trypan blue
Description: as §1

A549 = experiment: Cytotoxicity assay, viable cell count; assay type: cell-based; details: Homo sapiens; A549, NSCLC; 96 h continuous treatment, trypan blue
Description: as §1

RAJI = experiment: Cytotoxicity assay, viable cell count; assay type: cell-based; details: Homo sapiens, B-Cell Lymphoma, 96 h continuous treatment, trypan blue
Description: as §1

HCT-15 = experiment: Cytotoxicity assay, viable cell count; assay type: cell-based; details: Homo sapiens; HCT-15, Colon (MDR elevated); 96 h continuous treatment, trypan blue
Description: as §1

N87 = experiment: Cytotoxicity assay, viable cell count; assay type: cell-based; details: N87, Gastric(ErbB2+); 96 h continuous treatment, trypan blue
Description: as §1

SK-BR-3 = experiment: Cytotoxicity assay, viable cell count; assay type: cell-based; details: Homo sapiens; SK-BR-3, ErbB2 + Breast; 96 h continuous treatment, trypan blue
Description: as §1

SNU-475 = experiment: Cytotoxicity assay, viable cell count; assay type: cell-based; details: Homo sapiens; SNU-475, Hepatocellular carcinoma; 96 h continuous treatment, trypan blue
Description: as §1

SNU-449 = experiment: Cytotoxicity assay, viable cell count; assay type: cell-based; details: Homo sapiens; SNU-449, Liver; 96 h continuous treatment, trypan blue
Description: as §1

Z138C = experiment: Cytotoxicity assay, viable cell count; assay type: cell-based; details: MCL, 96 h continuous treatment, trypan blue
Description: as §1

Sequence of TBK1 (Q9UHD2 whole entry, species assumed): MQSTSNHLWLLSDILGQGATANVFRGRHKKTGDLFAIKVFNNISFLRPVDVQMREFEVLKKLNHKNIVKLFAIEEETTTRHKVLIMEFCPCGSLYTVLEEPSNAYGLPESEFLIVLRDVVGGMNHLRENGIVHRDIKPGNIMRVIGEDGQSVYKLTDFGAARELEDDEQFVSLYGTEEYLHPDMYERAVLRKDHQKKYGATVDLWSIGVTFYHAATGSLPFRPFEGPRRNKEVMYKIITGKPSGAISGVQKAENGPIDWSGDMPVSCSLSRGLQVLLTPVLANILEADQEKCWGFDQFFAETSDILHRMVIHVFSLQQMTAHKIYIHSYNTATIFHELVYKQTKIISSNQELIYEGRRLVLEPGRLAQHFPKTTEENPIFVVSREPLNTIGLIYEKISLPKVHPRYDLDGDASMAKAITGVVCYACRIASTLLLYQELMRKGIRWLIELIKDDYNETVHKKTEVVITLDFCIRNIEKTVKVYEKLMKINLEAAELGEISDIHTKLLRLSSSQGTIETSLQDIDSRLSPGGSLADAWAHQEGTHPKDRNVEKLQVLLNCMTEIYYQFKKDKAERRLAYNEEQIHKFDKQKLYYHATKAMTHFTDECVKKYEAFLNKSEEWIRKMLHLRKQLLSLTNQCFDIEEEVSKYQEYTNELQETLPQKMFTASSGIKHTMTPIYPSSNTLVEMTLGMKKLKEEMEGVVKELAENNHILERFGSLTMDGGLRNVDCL

Compound CN1CCN(c2ccc(Nc3ncc4cc(C#N)c(=O)n(C5CCCC5)c4n3)cc2)CC1 [Compound 12, 8-cyclopentyl-2-((4-(4-methylpiperazin-1-yl)phenyl)amino)-7-oxo-7,8-dihydropyrido[2,3-d]pyrimidine-6-carbonitrile] has an IC50 (TBK1) of 71.8 nM, an IC50 (FRK/PTK5) of 575 nM and an IC50 (YES/YES1) of 38.1 nM. For the same compound, the IC50 (LYN) was 68.5 nM, the IC50 (TAOK1) was 78.7 nM and the IC50 (EphB2/HEK5) was 130 nM. For the same compound, the IC50 (FLT4NEGFR3) was 63.5 nM, the IC50 (FGFR2) was 54.8 nM and the GI50 (BT474) was 250 nM. For the same compound, the GI50 (JURKAT) was 150 nM, the GI50 (HELA) was 750 nM and the GI50 (SNU-5) was 200 nM. The GI50 (K562) was 500 nM, the GI50 (SW480) was 100 nM and the GI50 (U87) was 100 nM. It also gave a GI50 (SK-OV-3) of 750 nM, a GI50 (MCF-7) of 150 nM and a GI50 (MIA-PaCa-2) of 250 nM. For the same compound, the GI50 (COLO-205) was 200 nM, the GI50 (U266) was 200 nM and the GI50 (MDA-MB-468) was 1500 nM. The GI50 (DLD-1) was 100 nM, the GI50 (SNU-398) was 500 nM and the GI50 (DU145) was 750 nM. The GI50 (BT20) was 100 nM, the GI50 (GRANTA-519) was 75 nM and the GI50 (N417) was 250 nM. It also gave a GI50 (A549) of 200 nM, a GI50 (RAJI) of 250 nM and a GI50 (HCT-15) of 400 nM. For the same compound, the GI50 (N87) was 900 nM, the GI50 (SK-BR-3) was 600 nM and the GI50 (SNU-475) was 300 nM. The GI50 (SNU-449) was 750 nM and the GI50 (Z138C) was 25 nM.
